# Source: EP3388430A1, “COMPOUND, COMPOUND FOR USE IN THE TREATMENT OF A PATHOLOGICAL CONDITION, A PHARMACEUTICAL COMPOSITION AND A METHOD FOR PREPARING SAID COMPOUND” (Technische Universität München, priority 2017, dated 2018)
# Assays:
# [1] = molecular target: T1, EphA2 (Homo sapiens, UniProt P29317); test: Chemical proteomic affinity matrix competition binding in cell lysate (Kd app, CATDS); settings: CATDS (EphA2) at the concentration corresponding to the Kd app for EphA2; compared with dasatinib
# T1 construct: enrichment of ATP-pocket containing proteins (mainly kinases) from complex native cell lysates; endogenous in cells; host or cells: native cell lysate
# Description: Several of the compounds according to the invention were further evaluated by a chemical proteomic approach facilitating the identification and quantification of drug-protein interactions. This technology utilizes an affinity matrix comprising five immobilized broad spectrum kinase inhibitors for enrichment of ATP-pocket containing proteins (mainly kinases) from complex native cell lysates as described in Bantscheff et al, Nat Biotechnol., 2007, 25(9):1035-44 and Médard et al, L Proteome Res., 2015, 14(3):1574-86. Coupled to quantitative mass spectrometry readout, this chemical proteomic approach allows for the simultaneous identification and quantification of about 300 native human protein kinases. […]
# The compounds according to the invention were tested in nine different concentrations (including a DMSO control) ranging from 3 nM to 30 µM. […] Compound selectivity was determined by calculation of a selectivity score named CATDS (concentration and target dependent selectivity). […] It is calculated by dividing the target binding of the target protein (in this case EphA2) by the sum of all target bindings (including the target protein of interest, in this case EphA2) at a particular concentration (in this case the concentration corresponding to the Kd^app value of a compound for EphA2). […]
# [2] = system: SF-268 cells; test: SF-268 cell viability, resazurin-based assay; settings: Homo sapiens, SF-268, 72 h; three days of treatment; three biological and three technical replicates, Fig. 8; read-out: cellular potency (EC50), SF-268 cell viability
# Procedure: The dependency of viability of SF-268 cells on EphA2 expression was validated by siRNA knockdown experiments. SF-268 cells were treated with four siRNAs targeting EphA2 expression independently and a mixture of the four siRNAs. Experiments were performed in three biological and three technical replicates. Cell death siRNA and scrambled siRNA were used as positive and negative controls. After six days of treatment, cellular viability was determined by a resazurin-based assay system measuring the reduction of resazurin as a function of metabolic activity.
# Cellular potency was determined as EC50 value after three days of treatment using the above mentioned resazurin-based assay system in three biological and three technical replicates.
# T1 sequence (P29317 24-976): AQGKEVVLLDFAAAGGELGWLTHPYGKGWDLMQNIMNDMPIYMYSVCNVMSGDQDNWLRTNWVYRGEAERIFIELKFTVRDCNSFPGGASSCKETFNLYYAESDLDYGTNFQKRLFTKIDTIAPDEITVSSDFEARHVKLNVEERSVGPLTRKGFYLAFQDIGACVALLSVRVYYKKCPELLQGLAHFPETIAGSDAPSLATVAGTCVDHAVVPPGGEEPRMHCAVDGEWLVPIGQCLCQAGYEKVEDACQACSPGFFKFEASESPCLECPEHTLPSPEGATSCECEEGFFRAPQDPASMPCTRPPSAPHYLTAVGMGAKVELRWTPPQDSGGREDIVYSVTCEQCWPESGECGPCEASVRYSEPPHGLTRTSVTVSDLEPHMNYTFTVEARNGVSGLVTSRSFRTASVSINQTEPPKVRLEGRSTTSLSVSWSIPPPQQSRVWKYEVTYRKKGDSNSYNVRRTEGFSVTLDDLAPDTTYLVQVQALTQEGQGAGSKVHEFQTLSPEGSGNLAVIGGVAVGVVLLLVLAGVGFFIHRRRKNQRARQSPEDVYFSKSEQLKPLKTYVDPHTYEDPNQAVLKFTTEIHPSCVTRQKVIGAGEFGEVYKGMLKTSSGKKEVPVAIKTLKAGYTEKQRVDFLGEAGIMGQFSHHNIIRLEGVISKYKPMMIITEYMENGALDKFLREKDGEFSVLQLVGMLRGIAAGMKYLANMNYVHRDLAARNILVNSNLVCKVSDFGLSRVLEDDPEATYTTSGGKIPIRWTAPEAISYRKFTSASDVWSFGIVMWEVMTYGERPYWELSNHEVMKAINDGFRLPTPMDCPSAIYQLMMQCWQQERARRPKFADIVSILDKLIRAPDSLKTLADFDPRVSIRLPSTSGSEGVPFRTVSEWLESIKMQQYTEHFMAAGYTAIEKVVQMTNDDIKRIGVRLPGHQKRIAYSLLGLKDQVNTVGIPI
selectivity for EphA2 binding (CATDS) [1],SMILES,EC50 [2] [nM]
improved selectivity,"Cc1cccc(Cl)c1NC(=O)c1cnc(Nc2cccc(C(=O)NC3CCNCC3(F)F)c2)s1 (stereo not shown) [Compound 28, N-(2-chloro-6-methylphenyl)-2-((3-((3,3-difluoropiperidin-4-yl)carbamoyl)phenyl)amino)thiazole-5-carboxamide]",
improved selectivity,"Cc1cccc(Cl)c1NC(=O)c1cnc(Nc2cc(N3CCOCC3)cc(N3CCOCC3)c2)s1 [Compound 40, N-(2-chloro-6-methylphenyl)-2-((3,5-dimorpholinophenyl)amino)thiazole-5-carboxamide]",94
,"Cc1cccc(Cl)c1NC(=O)c1cnc(Nc2cc(N3CCOCC3)cc(S(C)(=O)=O)c2)s1 [Compound 41, N-(2-chloro-6-methylphenyl)-2-((3-(methylsulfonyl)-5-morpholinophenyl)amino)thiazole-5-carboxamide]",504
